MIC80 data for two molecules are collected here from ChEMBL document CHEMBL1146065, “Structure-based optimization of azole antifungal agents by CoMFA, CoMSIA, and molecular docking” (2006).

For one test, the system named is Candida albicans. As to the kind of experiment: Antifungal activity against Candida albicans. In kind it is functional.
The subject of a further test is Candida parapsilosis. As to the kind of experiment: Antifungal activity against Candida parapsilosis. In kind it is functional. The following applies: Lodderomyces parapsilosis.
The test system of another test is Microsporum. The test is described as follows: Antifungal activity against Microsporum lanosum. In kind it is functional.
In a further test the test system is Nannizzia gypsea. As to the kind of experiment: Antifungal activity against Microsporum gypseum. In kind it is functional.
A further test relates to Trichophyton violaceum. As to the kind of experiment: Antifungal activity against Trichophyton violaceum. Format: functional.
The next test has as its system Trichophyton benhamiae. As to the kind of experiment: Antifungal activity against Trichophyton mentagrophytes. In kind it is functional, Arthroderma benhamiae.
The test system of another test is Sporothrix schenckii. The test is described as follows: Antifungal activity against Sporothrix schenckii. In kind it is functional.
A further test relates to Candida tropicalis. The test is described as follows: Antifungal activity against Candida tropicalis. In kind it is functional.
The test system of the next test is Trichophyton rubrum. The test is described as follows: Antifungal activity against Trichophyton rubrum. In kind it is functional.
The next test has as its system Fonsecaea pedrosoi. The test is described as follows: Antifungal activity against Fonsecaea pedrosoi. Format: functional.
Another test relates to Epidermophyton floccosum. As to the kind of experiment: Antifungal activity against Epidermophyton floccosum. In kind it is functional.
The test system of another test is Aspergillus fumigatus. The test is described as follows: Antifungal activity against Aspergillus fumigatus. In kind it is functional.
The subject of a further test is Cryptococcus neoformans. As to the kind of experiment: Antifungal activity against Cryptococcus neoformans. Format: functional.

Converted amounts (≈) assume the structure as drawn.

The MIC80 is an inhibitory concentration at the 80% level, which refers to growth in some studies and to a panel of isolates in others. The low end stands for greater potency, the high end for weaker potency. On to `CC(=O)N1CCN(c2ccc(OCC3COC(Cn4ccnc4)(c4ccc(Cl)cc4Cl)O3)cc2)CC1` (stereo unspecified) [KETOCONAZOLE], for which the MIC80 is 0.0625 µg/mL (≈ 0.118 µM) against Candida albicans; no more than 0.125 µg/mL against Candida parapsilosis; less than 0.0625 µg/mL in the test with Microsporum; less than 0.0625 µg/mL in the test on Nannizzia gypsea; 0.25 µg/mL (≈ 0.47 µM) in the test with Trichophyton violaceum; less than 0.0625 µg/mL against Trichophyton benhamiae. Moreover, the MIC80 against Sporothrix schenckii is 0.5 µg/mL (≈ 0.941 µM); in the test on Candida tropicalis, no more than 0.125 µg/mL; in the test with Trichophyton rubrum it was no more than 0.125 µg/mL; in the test with Fonsecaea pedrosoi it was no more than 0.125 µg/mL; against Epidermophyton floccosum, less than 0.0625 µg/mL; against Aspergillus fumigatus it was 1 µg/mL (≈ 1.88 µM). The molecule also yielded an MIC80 in the test on Cryptococcus neoformans of no more than 0.125 µg/mL.

With `CN(C/C=C/C#CC(C)(C)C)Cc1cccc2ccccc12` [TERBINAFINE], the MIC80 was 16 µg/mL (≈ 54.9 µM) in the test on Candida albicans; 16 µg/mL (≈ 54.9 µM) against Candida parapsilosis; 32 µg/mL (≈ 110 µM) against Microsporum; 0.5 µg/mL (≈ 1.72 µM) against Nannizzia gypsea; 4 µg/mL (≈ 13.7 µM) in the test with Trichophyton violaceum; greater than 32 µg/mL in the test on Trichophyton benhamiae. Further, the MIC80 against Sporothrix schenckii was 2 µg/mL (≈ 6.86 µM); against Candida tropicalis, 16 µg/mL (≈ 54.9 µM); with Trichophyton rubrum, no more than 0.125 µg/mL; against Fonsecaea pedrosoi it was no more than 0.125 µg/mL; with Epidermophyton floccosum it was greater than 32 µg/mL; in the test on Aspergillus fumigatus, 0.25 µg/mL (≈ 0.858 µM). This molecule also displayed an MIC80 in the test with Cryptococcus neoformans of 4 µg/mL (≈ 13.7 µM).
